Legend:
in vitro [1] = conditions: male, Beagle, dog
Procedure: (§1) Reaction mixture, minus cofactors, was prepared as described below. Test article was added into the reaction mixture at a final concentration of 1 μM. […] An aliquot of the reaction mixture (without cofactor cocktail) was equilibrated in a shaking water bath at 37° C. for 3 minutes. The reaction was initiated by the addition of cofactor cocktail, and the mixture was incubated in a shaking water bath at 37° C. Aliquots (100 μL) were withdrawn at 0, 10, 20, 30, and 60 minutes. Test article samples were immediately combined with 300 μL of ice-cold acetonitrile containing 1% formic acid. Control samples were immediately combined with 400 μL of ice-cold 50/50 acetonitrile (ACN)/dH2O containing 0.1% formic acid and internal standard to terminate the reaction. Samples were then mixed and centrifuged to precipitate proteins. Calibration standards were prepared in matched matrix. Samples and standards were assayed by LC-MS/MS using electrospray ionization for both the dosed prodrug and the expected drug (PEA). Analytical conditions are outlined in Appendix 8-1. Test article concentration at each time point was compared to test article concentration at time 0 to determine the percent remaining at each time point. Halflives were calculated using GraphPad software, fitting to a single-phase exponential decay equation.
as §1, with “for 5” for “for 3”, “minutes. Reaction” for “minutes. The reaction”, “and” for “and the”, “both” for “both the”, “Appendix 10-1.” for “Appendix 8-1.”
(§2) Reaction mixture, minus cofactors, was prepared as described below. Test article was added into the reaction mixture at a final concentration of 1 μM. […] An aliquot of the reaction mixture (without cofactor cocktail) was equilibrated in a shaking water bath at 37° C. for 3 minutes. Reaction was initiated by the addition of cofactor cocktail, and the mixture was incubated in a shaking water bath at 37° C. Aliquots (100 μL) were withdrawn at 0, 10, 20, 30, and 60 minutes. Test article samples were immediately combined with 300 μL of ice-cold acetonitrile containing 1% formic acid. Control samples were immediately combined with 400 μL of ice-cold 50/50 acetonitrile (ACN)/dH2O containing 0.1% formic acid and internal standard to terminate the reaction. Samples were then mixed and centrifuged to precipitate proteins. Calibration standards were prepared in matched matrix. Samples and standards were assayed by LC-MS/MS using electrospray ionization for both dosed prodrug and expected drug (PEA). Analytical conditions are outlined in Appendix 13-1. Test article concentration at each time point was compared to test article concentration at time 0 to determine the percent remaining at each time point. Halflives were calculated using GraphPad software, fitting to a single-phase exponential decay equation.

in vitro [2] = conditions: male, CD-1, mouse
Procedure: as §1
as §2, with “for 5” for “for 3”, “and” for “and the”, “Appendix 10-1.” for “Appendix 13-1.”
as §2

in vitro [3] = conditions: both, human
Procedure: (§3) The reaction mixture, minus cofactors, was prepared as described below. The test article was added into the reaction mixture at a final concentration of 1 μM. […] An aliquot of the reaction mixture (without cofactor cocktail) was equilibrated in a shaking water bath at 37° C. for 3 minutes. The reaction was initiated by the addition of cofactor cocktail, and the mixture was incubated in a shaking water bath at 37° C. Aliquots (100 μL) were withdrawn at 0, 10, 20, 30, and 60 minutes. All samples were immediately combined with 400 uL of icecold 50/50 acetonitrile/H2O containing 0.1% formic acid and internal standard to terminate the reaction. The samples were then mixed and centrifuged to precipitate proteins. Calibration standards were prepared in matched matrix. All samples and standards were assayed by LC-MS/MS using electrospray ionization for both the dosed prodrug I-9 and the expected drug (PEA). Analytical conditions are outlined in Appendix 4-1. The test article concentration at each time point was compared to the test article concentration at time 0 to determine the percent remaining at each time point. Half-lives were calculated using GraphPad software, fitting to single-phase exponential decay equation.
as §1
as §2, with “for 5” for “for 3”, “and” for “and the”, “Appendix 10-1.” for “Appendix 13-1.”
(§4) Reaction mixture, minus cofactors, was prepared as described below.

in vitro [4] = conditions: male, Sprague-Dawley, rat
Procedure: as §3, §1
as §2, with “for 5” for “for 3”, “and” for “and the”, “Appendix 10-1.” for “Appendix 13-1.”
as §4

CCCCCCCCCCCCCCCC(=O)NCCOC(=O)CCC(=O)OC(CO)CO [Compound I-8]
Measured concentration of PEA (analyte) (in vitro [1]; 0 min, 1 μM): 0.33 µM
Measured concentration of PEA (analyte) (in vitro [1]; 10 min, 1 μM): 0.71 µM
Measured concentration of PEA (analyte) (in vitro [1]; 20 min, 1 μM): 0.81 µM
Measured concentration of PEA (analyte) (in vitro [1]; 30 min, 1 μM): 0.67 µM
Measured concentration of PEA (analyte) (in vitro [1]; 60 min, 1 μM): 0.81 µM
% Remaining of Initial (in vitro [1]; s9, 0 h, 1 μM): 100%
% Remaining of Initial (in vitro [1]; s9, 10 min, 1 μM): <1.0%
% Remaining of Initial (in vitro [1]; s9, 20 min, 1 μM): <1.0%
% Remaining of Initial (in vitro [1]; s9, 0.5 h, 1 μM): <1.0%
% Remaining of Initial (in vitro [1]; s9, 1 h, 1 μM): <1.0%
microsomal CLint at 1 μM (in vitro [1]; s9, CLint): > 69.3 µL/min/mg
half-life at 1 μM (in vitro [1]; s9, Half-life): < 10 min
Measured concentration of PEA (analyte) (in vitro [2]; 0 min, 1 μM): 0.012 µM
Measured concentration of PEA (analyte) (in vitro [2]; 10 min, 1 μM): 0.12 µM
Measured concentration of PEA (analyte) (in vitro [2]; 20 min, 1 μM): 0.19 µM
Measured concentration of PEA (analyte) (in vitro [2]; 30 min, 1 μM): 0.22 µM
Measured concentration of PEA (analyte) (in vitro [2]; 60 min, 1 μM): 0.26 µM
% Remaining of Initial (in vitro [2]; s9, 0 h, 1 μM): 100%
% Remaining of Initial (in vitro [2]; s9, 10 min, 1 μM): 65%
% Remaining of Initial (in vitro [2]; s9, 20 min, 1 μM): 45%
% Remaining of Initial (in vitro [2]; s9, 0.5 h, 1 μM): 31%
% Remaining of Initial (in vitro [2]; s9, 1 h, 1 μM): 12%
microsomal CLint at 1 μM (in vitro [2]; s9, CLint): 38.9 µL/min/mg
half-life at 1 μM (in vitro [2]; s9, Half-life): 18 min
Measured concentration of PEA (analyte) (in vitro [3]; 0 min, 1 μM): 0.021 µM
Measured concentration of PEA (analyte) (in vitro [3]; 10 min, 1 μM): 0.32 µM
Measured concentration of PEA (analyte) (in vitro [3]; 20 min, 1 μM): 0.39 µM
Measured concentration of PEA (analyte) (in vitro [3]; 30 min, 1 μM): 0.38 µM
Measured concentration of PEA (analyte) (in vitro [3]; 60 min, 1 μM): 0.38 µM
% Remaining of Initial (in vitro [3]; s9, 0 h, 1 μM): 100%
% Remaining of Initial (in vitro [3]; s9, 10 min, 1 μM): 31%
% Remaining of Initial (in vitro [3]; s9, 20 min, 1 μM): 7.0%
% Remaining of Initial (in vitro [3]; s9, 0.5 h, 1 μM): 1.8%
% Remaining of Initial (in vitro [3]; s9, 1 h, 1 μM): <1.0%
microsomal CLint at 1 μM (in vitro [3]; s9, CLint): > 69.3 µL/min/mg
half-life at 1 μM (in vitro [3]; s9, Half-life): < 10 min
Measured concentration of PEA (analyte) (in vitro [4]; 0 min, 1 μM): 0.022 µM
Measured concentration of PEA (analyte) (in vitro [4]; 10 min, 1 μM): 0.22 µM
Measured concentration of PEA (analyte) (in vitro [4]; 20 min, 1 μM): 0.34 µM
Measured concentration of PEA (analyte) (in vitro [4]; 30 min, 1 μM): 0.42 µM
Measured concentration of PEA (analyte) (in vitro [4]; 60 min, 1 μM): 0.45 µM
% Remaining of Initial (in vitro [4]; s9, 0 h, 1 μM): 100%
% Remaining of Initial (in vitro [4]; s9, 10 min, 1 μM): 58%
% Remaining of Initial (in vitro [4]; s9, 20 min, 1 μM): 37%
% Remaining of Initial (in vitro [4]; s9, 0.5 h, 1 μM): 22%
% Remaining of Initial (in vitro [4]; s9, 1 h, 1 μM): 6.2%
microsomal CLint at 1 μM (in vitro [4]; s9, CLint): 50.3 µL/min/mg
half-life at 1 μM (in vitro [4]; s9, Half-life): 14 min

CC/C=C\C/C=C\C/C=C\C/C=C\C/C=C\CCCC(=O)OCCNC(=O)CCCCCCCCCCCCCCC [Compound I-5]
Concentration (μM) of analyte PEA, 0 min (in vitro [1]; 0 min, 1 μM): 0.13 µM
Concentration (μM) of analyte PEA, 10 min (in vitro [1]; 10 min, 1 μM): 0.26 µM
Concentration (μM) of analyte PEA, 20 min (in vitro [1]; 20 min, 1 μM): 0.25 µM
Concentration (μM) of analyte PEA, 30 min (in vitro [1]; 30 min, 1 μM): 0.25 µM
Concentration (μM) of analyte PEA, 60 min (in vitro [1]; 60 min, 1 μM): 0.28 µM
% Remaining of Initial (n = 1), 0 min (in vitro [1]; s9, 0 h, 1 μM): 100%
% Remaining of Initial (n = 1), 10 min (in vitro [1]; s9, 10 min, 1 μM): 50%
% Remaining of Initial (n = 1), 20 min (in vitro [1]; s9, 20 min, 1 μM): 48%
% Remaining of Initial (n = 1), 30 min (in vitro [1]; s9, 0.5 h, 1 μM): 36%
% Remaining of Initial (n = 1), 60 min (in vitro [1]; s9, 1 h, 1 μM): 36%
microsomal CLint at 1 μM (in vitro [1]; s9, CLint (mL/min/mg protein)): 26.3 µL/min/mg
half-life at 1 μM (in vitro [1]; s9, Half-life (min)): 26 min
Concentration (μM) of analyte PEA, 0 min (in vitro [2]; 0 min, 1 μM): 0.050 µM
Concentration (μM) of analyte PEA, 10 min (in vitro [2]; 10 min, 1 μM): 0.11 µM
Concentration (μM) of analyte PEA, 20 min (in vitro [2]; 20 min, 1 μM): 0.076 µM
Concentration (μM) of analyte PEA, 30 min (in vitro [2]; 30 min, 1 μM): 0.093 µM
Concentration (μM) of analyte PEA, 60 min (in vitro [2]; 60 min, 1 μM): 0.14 µM
% Remaining of Initial (n = 1), 0 min (in vitro [2]; s9, 0 h, 1 μM): 100%
% Remaining of Initial (n = 1), 10 min (in vitro [2]; s9, 10 min, 1 μM): 68%
% Remaining of Initial (n = 1), 20 min (in vitro [2]; s9, 20 min, 1 μM): 67%
% Remaining of Initial (n = 1), 30 min (in vitro [2]; s9, 0.5 h, 1 μM): 66%
% Remaining of Initial (n = 1), 60 min (in vitro [2]; s9, 1 h, 1 μM): 49%
Concentration (μM) of analyte PEA, 0 min (in vitro [3]; 0 min, 1 μM): 0 µM
Concentration (μM) of analyte PEA, 10 min (in vitro [3]; 10 min, 1 μM): 0.050 µM
Concentration (μM) of analyte PEA, 20 min (in vitro [3]; 20 min, 1 μM): 0.063 µM
Concentration (μM) of analyte PEA, 30 min (in vitro [3]; 30 min, 1 μM): 0.074 µM
Concentration (μM) of analyte PEA, 60 min (in vitro [3]; 60 min, 1 μM): 0.10 µM
% Remaining of Initial (n = 1), 0 min (in vitro [3]; s9, 0 h, 1 μM): 100%
% Remaining of Initial (n = 1), 10 min (in vitro [3]; s9, 10 min, 1 μM): 82%
% Remaining of Initial (n = 1), 20 min (in vitro [3]; s9, 20 min, 1 μM): 49%
% Remaining of Initial (n = 1), 30 min (in vitro [3]; s9, 0.5 h, 1 μM): 38%
% Remaining of Initial (n = 1), 60 min (in vitro [3]; s9, 1 h, 1 μM): 45%
microsomal CLint at 1 μM (in vitro [3]; s9, CLint (mL/min/mg protein)): 21.6 µL/min/mg
half-life at 1 μM (in vitro [3]; s9, Half-life (min)): 32 min
Concentration (μM) of analyte PEA, 0 min (in vitro [4]; 0 min, 1 μM): 0.029 µM
Concentration (μM) of analyte PEA, 10 min (in vitro [4]; 10 min, 1 μM): 0.062 µM
Concentration (μM) of analyte PEA, 20 min (in vitro [4]; 20 min, 1 μM): 0.099 µM
Concentration (μM) of analyte PEA, 30 min (in vitro [4]; 30 min, 1 μM): 0.11 µM
Concentration (μM) of analyte PEA, 60 min (in vitro [4]; 60 min, 1 μM): 0.18 µM
% Remaining of Initial (n = 1), 0 min (in vitro [4]; s9, 0 h, 1 μM): 100%
% Remaining of Initial (n = 1), 10 min (in vitro [4]; s9, 10 min, 1 μM): 57%
% Remaining of Initial (n = 1), 20 min (in vitro [4]; s9, 20 min, 1 μM): 48%
% Remaining of Initial (n = 1), 30 min (in vitro [4]; s9, 0.5 h, 1 μM): 46%
% Remaining of Initial (n = 1), 60 min (in vitro [4]; s9, 1 h, 1 μM): 44%
microsomal CLint at 1 μM (in vitro [4]; s9, CLint (mL/min/mg protein)): 18.2 µL/min/mg
half-life at 1 μM (in vitro [4]; s9, Half-life (min)): 38 min

From patent US11547681B2, “N-acylethanolamide derivatives and uses thereof” (ELIEM THERAPEUTICS, INC., priority 2016, dated 2023)
